Laboratory results published in patent US20100119516A1, “ANTI-TGF-BETA RECEPTOR II ANTIBODIES” (priority 2008, published 2010).

System: EMT6 mouse tumor cells
Experiment: EMT6 s.c. tumor model (monotherapy and combination with cyclophosphamide)
Format: in vivo, mice
Details: i.p. 3 times each week, mAb 40 mg/kg, CTX 80 mg/kg
From the text: Athymic nude mice (Charles River Laboratories, Wilmington, Mass.), Balb/c mice, or C57B6 mice (Charles River Laboratories, Wilmington, Mass.) may be used for inoculation with mouse or human carcinoma cells. For treatment of established tumors in subcutaneous models, tumors may be allowed to grow to approximately 200 mm^3 in size, and then mice may be randomized into groups of 12-15 animals per group. In lung metastasis models, mice may be injected intravenously with tumor cells via tail vein. Animals may receive i.p. administered anti-TGFβRII mAb at a dose of 10-40 mg/kg three times each week. Mice in control groups may receive an equal volume of saline or normal IgG solution. […] Tumors may be measured twice each week with calipers. Tumor volumes may be calculated using the formula [π/6 (w1×w2×2)], where “w1” represents the largest tumor diameter and “w2” represents the smallest tumor diameter. […]
The inhibitory activity of mAb MT1 against immunosuppressive cells, i.e. CD4/CD25/Foxp3/TGFβRII+Treg cells and Gr-1+/CD11b+/TGFβRII+ myeloid cells is evaluated in an EMT6 s.c. tumor model. The inhibitory effect of anti-TGFβRII antibody on Treg and Gr-1+/CD11b+ myeloid cell population in tumor-bearing mice may be determined by FACS analysis on the alteration of Gr-1+/CD11b+ population and CD4/CD25/Foxp3/TGFβRII+ and Gr-1+/CD11b+/TGFβRII+ population after treatment of mice with mAb MT1. […]

O=P1(N(CCCl)CCCl)NCCCO1 (centres unmarked) [CTX, Cyclophosphamide]
inhibition of primary tumor growth: 62%
inhibition of spontaneous pulmonary metastasis: 96%
